The results in this text go back to publication doi:10.1101/212837v1 (biorxiv, 2017).

The target of this experiment is GAA (human acid α-glucosidase; rhGAA) (Homo sapiens, UniProt P10253). The class given is biochemical.

The Ki is the equilibrium dissociation constant of an inhibitor or competing ligand from its target. Read a high Ki as weaker binding. The compound `OC[C@H]1OC(O)[C@H](O)[C@@H](O)[C@@H]1O` (mixture of isomers) [glucose] returned a Ki of 5.8 ± 0.6 mM.
